# What was measured:
# [1] = no reference given; cited from earlier work
# AfK = target: T1, AfK (Aspergillus fumigatus, UniProt Q4WQS0); assay: Kdnase activity assay: Michaelis-Menten parameters for AfK-catalyzed hydrolysis of substrates; type: biochemical; settings: 100 mM NaOAc pH 4, 0.01% BSA, 21 °C
# T1 construct: AfK was expressed and purified as described by Telford et al; made in house
# Description: Next, we measured the Michaelis–Menten parameters for AfK-catalyzed hydrolysis of 4 so as to guide assay optimization for the downstream HTS. Specifically, we added stop solution to the AfK-catalyzed reaction at various times and then, after cyclization we measured the fluorescence, which we converted to product concentration using a standard calibration curve (Figs S3–S5, Supporting Information). As expected, our alkyl Kdn glycoside undergoes enzyme-catalyzed hydrolysis with lower rate constants than those for the activated Kdn glycoside 4MU-Kdn. Specifically, the second-order rate constant (kcat/Km) for the AfK-catalyzed hydrolysis of 4 is (4.0 ± 0.8) × 10^3 M^−1 s^−1, while that for 4MU-Kdn (1) is (1.8 ± 0.1) × 10^5 M^−1 s^−1 ([Yeung et al. 2013]) (Table S1, Supporting Information).
# The activity of AfK was determined by measuring cleavage of the synthetic Kdnase substrate Kdn-SICL-4MU 4 (Fig. 1). Substrate 4 was incubated at rt for 10 min followed by the addition purified recombinant enzyme. A stop solution containing 100 mM K2CO3 pH ≈ 12 was added at a series of time points starting from 5, 10, 15, 30, 45, 60, 120, 180 min. […] The substrate concentration used ranged of 2–2,000 μM and the amount of 4-methylumbelliferone (4MU) released from 4 was determined using a fluorescence spectrophotometer (BioTek Neo 2) at excitation and emission wavelengths of 360 and 450 nm, respectively. […]
# [2] = Base promoted cyclization of liberated aglycon after carbonate stop solution; type: physicochemical; settings: after addition of carbonate stop solution, pH ≈ 10
# Experimental: With Kdn glycoside 4 in hand, we began assay development. […] We reasoned that hydroxyl group activation is required for cyclization. We therefore allowed the enzymatic reaction to proceed for 5 min and then raised the pH of the solution to a pH of ≈ 10 by addition of a solution of K2CO3 (Fig. 1D). We opted for this raised pH value because it would both facilitate cyclization releasing the 4MU reporter and also terminate the enzyme-catalyzed substrate hydrolysis. Using this approach, we observed a significant increase in fluorescence attributable to AfK-catalyzed hydrolysis of substrate 4. […] That is, in the absence of Kdnase, no hydroxycarbamate aglycon 6 is formed. […] Thus, >98% of the fluorescence signal is produced within 15 min following addition of the basic buffer (Fig. S2, supporting information).
# T1 sequence (Q4WQS0 21-406): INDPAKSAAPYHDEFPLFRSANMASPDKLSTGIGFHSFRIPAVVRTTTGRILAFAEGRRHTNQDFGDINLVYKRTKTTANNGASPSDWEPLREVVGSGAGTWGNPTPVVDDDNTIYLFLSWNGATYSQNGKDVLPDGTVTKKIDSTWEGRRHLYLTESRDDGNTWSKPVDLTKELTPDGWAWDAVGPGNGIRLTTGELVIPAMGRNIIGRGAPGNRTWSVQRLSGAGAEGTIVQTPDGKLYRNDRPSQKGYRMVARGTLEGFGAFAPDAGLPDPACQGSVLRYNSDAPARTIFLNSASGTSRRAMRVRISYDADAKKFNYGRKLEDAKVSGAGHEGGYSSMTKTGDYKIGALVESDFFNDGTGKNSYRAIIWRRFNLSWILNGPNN
smiles,measurement,setting,value
"Cc1cc(=O)oc2cc(O)ccc12 [4MU, 4-methylumbelliferone]",pKa,[1],8.4
"Cc1cc(=O)oc2cc(OC(=O)N(C)CCO[C@]3(C(=O)O)C[C@H](O)[C@@H](O)[C@H]([C@H](O)[C@H](O)CO)O3)ccc12 [compound 4, N-methyl-(N-4′-methylumbelliferylcarbonyl)-2-aminoethyl 3-deoxy-D-glycero-α-D-galacto-non-2-ulopyranosidonic acid]",Km,AfK,950 µM
same,kcat,AfK,3.7 ± 0.2 s–1
Cc1cc(=O)oc2cc(OC(=O)N(C)CCO)ccc12 [compound 6],half-life (t1/2) of first-order cyclization,[2],approximately 2.5 min

# Reference: publication PMC11727334, “A self-immolative Kdn-glycoside substrate enables high-throughput screening for inhibitors of Kdnases” (Glycobiology, 2024)
